Data reported in publication PMC12566723, “Boronic Derivatives of Thiosemicarbazones as Tyrosinase Inhibitors” (Pharmaceutics, 2025).
Where a name gives a salt, the structure may show the parent alone.

Experiments:
Hs-294T = experiment: Antiproliferative activity by sulforhodamine B assay, Hs-294T; format: cell-based; settings: for IC50: 72 h, SRB; for inhibition at 100 µM: read-out: proliferation inhibition at 100µM (reported if IC50 > 100 µM), 100 µM, 72 h, SRB
Experimental: (§1) Cell lines. The Hs-294T (HTB-140), MCF-10A, and SK-MEL-3 (HTB-69) cell lines were purchased from the American Type Culture Collection (ATCC; Rockville, MD, USA). The KU-19-19 was purchased from Leibniz Institute DSMZ-German Collection of Microorganisms and Cell Cultures GmbH (Braunschweig, Germany). Hs-294T, SK-MEL-3, and KU-19-19 (ACC 395) cell lines were cultured in Dulbecco’s Modified Eagle Medium (DMEM; Biowest, Nuaille, France) supplemented with 10% (v/v) fetal bovine serum (FBS; GE Healthcare HyClone, Logan, UT, USA), 2 mM L-glutamine (Sigma-Aldrich, Poznań, Poland). The MCF-10A cell line was cultured in Ham’s F12 medium with glutamine (Corning Costar, Warsaw, Poland) supplemented with 5% (v/v) FBS, 5% (v/v) horse serum, 10 µg/mL insulin, 0.05 µg/mL cholera toxin, 0.5 µg/mL hydrocortisone, and 20 ng/mL hEGF (all from Sigma-Aldrich). All culture media contained 100 µg/mL streptomycin (Sigma-Aldrich) and 100 U/mL penicillin (PolfaTarchomin SA, Warsaw, Poland). The cell lines were tested for mycoplasma contamination using Venor GeM Classic (Minerva Biolabs, Berlin, Germany) with negative results in all cases. Cell lines were cultured in a humidified atmosphere at 37 °C with 5% (v/v) CO2 and passaged twice a week using ethylenediaminetetraacetic acid (EDTA)-Trypsin solution (pH 8; HIIET, Wroclaw, Poland) as a detachment agent.
(§2) Antiproliferative activity assessment by sulforhodamine B assay. The cells were seeded on 384-well plates (Greiner Bio One, Kremsmünster, Austria) at a density of 1 × 10^3 cells/well and, after overnight attachment, were exposed to compounds at various concentrations (at least eight concentrations). After 72 h, the sulforhodamine B (SRB) assay based on Skehan et al. was performed with minor modifications. Briefly, cell were fixed with 20% (w/v) trichloroacetic acid (Avantor Performance Materials, Gliwice, Poland) for 1 h, washed several times with tap water, and stained with 20 µL of 0.1% (w/v) solution of sulforhodamine B (Sigma-Aldrich, Poznan, Poland) in 1% (v/v) acetic acid (Avantor Performance Materials, Gliwice, Poland). After 30 min of incubation at room temperature, the unbound dye was washed out with 1% (v/v) acetic acid, whereas the bound dye was solubilized with 70 µL of a 10 mM unbuffered tris(hydroxymethyl)aminomethane (TRIS; Avantor Performance Materials, Gliwice, Poland) solution. The entire procedure was performed using Biotek EL-406 washing station (BioTek Instruments, Winooski, VT, USA). Absorbance was read using a Biotek Hybrid H4 reader (BioTek Instruments, Winooski, VT, USA) at 540 nm wavelength. Proliferation inhibition (%Inh) was calculated using the following formula: %Inh = [((A_p − A_m)/(A_k − A_m)) × 100] − 100, where Am—absorbance of cell-free medium (blank), Ak—absorbance for vehicle-treated cells (control), Ap—absorbance for compound-treated cells. […] 10.5.0 (GraphPad Software Inc., San Diego, CA, USA) using the [inhibitor] vs. response—variable slope (four parameters) Hill’s equation, based on at least three biological, independent repeats.

KU-19-19 = experiment: Antiproliferative activity by sulforhodamine B assay, KU-19-19; format: cell-based; settings: SRB; for IC50: KU-19-19, 72 h; for inhibition at 100 µM: read-out: proliferation inhibition at 100µM (reported if IC50 > 100 µM), KU-19-19, 100 µM, 72 h
Experimental: as §1, §2

MCF-10A = experiment: Antiproliferative activity by sulforhodamine B assay, MCF-10A; format: cell-based; settings: for IC50: 72 h, SRB; for inhibition at 100 µM: read-out: proliferation inhibition at 100µM (reported if IC50 > 100 µM), 100 µM, 72 h, SRB
Experimental: as §1, §2

SK-MEL-3 = experiment: Antiproliferative activity by sulforhodamine B assay, SK-MEL-3; format: cell-based; settings: SRB; for IC50: SK-MEL-3, 72 h; for inhibition at 100 µM: SK-MEL3, read-out: proliferation inhibition at 100µM (reported if IC50 > 100 µM), SK-MEL-3, 100 µM, 72 h
Experimental: as §1, §2

[1] = test system: SK-MEL-3, Hs294T, KU-19-19, MCF-10A cell lines; experiment: Antiproliferative activity by sulforhodamine B assay, statements across the cell line panel; format: cell-based; settings: for IC50 in SK-MEL-3 relative to the Hs294T cell line: SK-MEL-3 vs Hs294T, fold higher; for antiproliferative effects in words: up to a concentration of 100 µM
Experimental: as §1, §2
In view of the results obtained from studies on the inhibitory activity of boronate derivatives of thiosemicarbazones against tyrosinase, we decided to test their ability to inhibit the growth and proliferation of tumor lines that overexpress tyrosinase. For this purpose, we tested antiproliferative activity on selected cell lines. Initial antiproliferative screening was conducted using a tissue-agnostic approach on a select panel of cell lines. […]

mushroom tyrosinase = mushroom tyrosinase (Agaricus bisporus, UniProt C7FF04); experiment: Tyrosinase enzymatic assay (diphenolase activity, L-DOPA substrate, dopachrome at 475 nm); format: biochemical; settings: para-substituted analogue vs carboxylic acid of ref 30
Chain of mushroom tyrosinase (C7FF04 2-392): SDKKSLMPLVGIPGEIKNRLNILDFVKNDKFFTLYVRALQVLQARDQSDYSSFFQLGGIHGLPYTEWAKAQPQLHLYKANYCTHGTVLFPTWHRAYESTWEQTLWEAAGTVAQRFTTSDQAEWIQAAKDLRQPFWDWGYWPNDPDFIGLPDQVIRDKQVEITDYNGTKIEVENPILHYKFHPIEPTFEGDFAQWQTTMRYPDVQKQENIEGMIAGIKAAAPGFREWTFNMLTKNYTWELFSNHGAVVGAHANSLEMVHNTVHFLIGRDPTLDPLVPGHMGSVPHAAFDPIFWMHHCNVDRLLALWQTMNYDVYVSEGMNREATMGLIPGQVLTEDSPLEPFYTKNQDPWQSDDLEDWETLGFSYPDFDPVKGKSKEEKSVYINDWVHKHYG
Chain of mushroom tyrosinase (G1K3P4 1-150 partner): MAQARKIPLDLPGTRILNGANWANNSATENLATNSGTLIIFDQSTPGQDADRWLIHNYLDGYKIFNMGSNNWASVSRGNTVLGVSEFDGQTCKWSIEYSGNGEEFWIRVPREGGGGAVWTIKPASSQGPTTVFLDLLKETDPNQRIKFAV

SMILES | inhibition at 100 µM (Hs-294T; Homo sapiens) [%] | inhibition at 100 µM (KU-19-19; Homo sapiens) [%] | inhibition at 100 µM (MCF-10A; Homo sapiens) [%] | inhibition at 100 µM (SK-MEL-3; Homo sapiens) [%] | IC50 (SK-MEL-3; Homo sapiens, SK-MEL3) [µM] | also measured
[NH2][Pt]([NH2])([Cl])[Cl] [CDDP, Cisplatin, reference compound] |  |  |  |  |  | IC50 (Hs-294T): 2.17 µM; IC50 (KU-19-19): 4.46 µM; IC50 (MCF-10A): 3.03 µM; IC50 (SK-MEL-3): 15 µM; IC50 in SK-MEL-3 relative to the Hs294T cell line [1]: 6.9 fold
NC(=S)N1N=Cc2ccccc2B1O [Compound 1] | 55.4 | 21.4 | 42.7 | 43.4 |  | 
NC(=S)NN=Cc1cccc(B(O)O)c1 [Compound 2] | 37.6 | 11.3 | 30.7 | 50.7 |  | 
NC(=S)N/N=C/c1ccc(B(O)O)cc1 [Compound 3] | 13.9 | 5.4 | 31.7 | 31.8 |  | antiproliferative effects in words [1]: minimal antiproliferative effects
CC1=NN(C(N)=S)B(O)c2ccccc21 [Compound 4] |  |  |  |  | 68.5 | IC50 (Hs-294T; Homo sapiens): 79.4 µM; IC50 (KU-19-19; Homo sapiens): 69 µM; IC50 (MCF-10A; Homo sapiens): 55 µM; IC50 ([1]; all four cell lines, 72 h, SRB, read-out: IC50 values, range over the tested cell lines): 55 to 79.4 µM
C/C(=N\NC(N)=S)c1cccc(B(O)O)c1 [Compound 5] | 35.9 | 26.8 | 37.1 |  | 56.1 | 
C/C(=N\NC(N)=S)c1ccc(B(O)O)cc1 [Compound 6] | 13.9 | 9.5 | 32.8 | 37.3 |  | IC50 against tyrosinase compared with the corresponding carboxylic acid (mushroom tyrosinase): four times lower; antiproliferative effects in words [1]: minimal antiproliferative effects
COc1cccc2c1C(=O)c1c(O)c3c(c(O)c1C2=O)C[C@@](O)(C(=O)CO)C[C@@H]3O[C@H]1C[C@H](N)[C@H](O)[C@H](C)O1 [Doxo, Doxorubicin hydrochloride, reference compound] |  |  |  |  | 0.016 | IC50 (Hs-294T; Homo sapiens): 0.0011 µM; IC50 (KU-19-19; Homo sapiens): 0.0016 µM; IC50 (MCF-10A; Homo sapiens): 0.00051 µM; IC50 in SK-MEL-3 relative to the Hs294T cell line [1]: 14.5 fold
